Results: ChEMBL document CHEMBL4507266, “Data for DCP probe BAY-784” (2021)

Key:
[1] = biological target: Ribosomal protein S6 kinase alpha-6 (Homo sapiens) (UniProt Q9UK32); details: Compound concentration 1000.0 nM
[2] = biological target: Serine/threonine-protein kinase 16 (Homo sapiens) (UniProt O75716); details: Compound concentration 1000.0 nM
[3] = biological target: Sodium-dependent serotonin transporter (Homo sapiens) (UniProt P31645); details: Compound concentration 10.0 uM
[4] = biological target: Serine/threonine-protein kinase haspin (Homo sapiens) (UniProt Q8TF76); details: Compound concentration 1000.0 nM
[5] = test system: Serine/threonine-protein kinase B-raf (Homo sapiens), P15056 [V600E]; details: Compound concentration 1000.0 nM
[6] = biological target: Serine/threonine-protein kinase SIK3 (Homo sapiens) (UniProt Q9Y2K2); details: Compound concentration 1000.0 nM
[7] = test system: Receptor-type tyrosine-protein kinase FLT3 (Homo sapiens), P36888 [UNDEFINED MUTATION]; details: Compound concentration 1000.0 nM
[8] = biological target: Activin receptor type-2B (Homo sapiens) (UniProt Q13705); details: Compound concentration 1000.0 nM
[9] = biological target: Receptor-type tyrosine-protein kinase FLT3 (Homo sapiens) (UniProt P36888); details: Compound concentration 1000.0 nM
[10] = biological target: Focal adhesion kinase 1 (Homo sapiens) (UniProt Q05397); details: Compound concentration 1000.0 nM
[11] = biological target: Receptor-interacting serine/threonine-protein kinase 1 (Homo sapiens) (UniProt Q13546); details: Compound concentration 1000.0 nM
[12] = biological target: Serine/threonine-protein kinase PAK 5 (Homo sapiens) (UniProt Q9P286); details: Compound concentration 1000.0 nM
[13] = biological target: Serine/threonine-protein kinase LATS2 (Homo sapiens) (UniProt Q9NRM7); details: Compound concentration 1000.0 nM
[14] = biological target: Interferon-induced, double-stranded RNA-activated protein kinase (Homo sapiens) (UniProt P19525); details: Compound concentration 1000.0 nM
[15] = biological target: Ribosomal protein S6 kinase alpha-4 (Homo sapiens) (UniProt O75676); details: Compound concentration 1000.0 nM
[16] = biological target: Cyclin-dependent kinase 7 (Homo sapiens) (UniProt P50613); details: Compound concentration 1000.0 nM
[17] = biological target: Serine/threonine-protein kinase B-raf (Homo sapiens) (UniProt P15056); details: Compound concentration 1000.0 nM
[18] = biological target: Serine/threonine-protein kinase PLK2 (Homo sapiens) (UniProt Q9NYY3); details: Compound concentration 1000.0 nM
[19] = biological target: Calcium/calmodulin-dependent protein kinase type IV (Homo sapiens) (UniProt Q16566); details: Compound concentration 1000.0 nM
[20] = biological target: Serine/threonine-protein kinase MARK1 (Homo sapiens) (UniProt Q9P0L2); details: Compound concentration 1000.0 nM
[21] = biological target: T1, Alpha-2B adrenergic receptor (Homo sapiens) (UniProt P18089); details: Compound concentration 10.0 uM
T1 sequence (whole entry): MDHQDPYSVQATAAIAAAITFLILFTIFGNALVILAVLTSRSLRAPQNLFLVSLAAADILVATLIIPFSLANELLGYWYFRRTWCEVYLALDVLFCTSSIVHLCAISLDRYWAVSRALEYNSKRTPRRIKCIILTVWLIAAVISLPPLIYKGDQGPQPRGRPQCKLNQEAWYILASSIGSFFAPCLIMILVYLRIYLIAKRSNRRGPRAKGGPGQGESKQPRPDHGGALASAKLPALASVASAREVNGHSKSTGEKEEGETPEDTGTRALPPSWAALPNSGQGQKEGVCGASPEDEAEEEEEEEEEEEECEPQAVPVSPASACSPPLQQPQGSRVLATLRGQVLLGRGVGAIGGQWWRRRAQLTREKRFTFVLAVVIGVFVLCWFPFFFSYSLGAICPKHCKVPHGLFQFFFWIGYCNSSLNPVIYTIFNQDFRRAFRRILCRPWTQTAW

[22] = biological target: Mitogen-activated protein kinase kinase kinase 15 (Homo sapiens) (UniProt Q6ZN16); details: Compound concentration 1000.0 nM
[23] = biological target: Serine/threonine-protein kinase PRP4 homolog (Homo sapiens) (UniProt Q13523); details: Compound concentration 1000.0 nM
[24] = biological target: Mitogen-activated protein kinase kinase kinase kinase 2 (Homo sapiens) (UniProt Q12851); details: Compound concentration 1000.0 nM
[25] = biological target: Tyrosine-protein kinase CSK (Homo sapiens) (UniProt P41240); details: Compound concentration 1000.0 nM
[26] = biological target: LIM domain kinase 2 (Homo sapiens) (UniProt P53671); details: Compound concentration 1000.0 nM
[27] = biological target: Serine/threonine-protein kinase Chk2 (Homo sapiens) (UniProt O96017); details: Compound concentration 1000.0 nM
[28] = biological target: Wee1-like protein kinase 2 (Homo sapiens) (UniProt P0C1S8); details: Compound concentration 1000.0 nM
[29] = biological target: Non-receptor tyrosine-protein kinase TYK2 (Homo sapiens) (UniProt P29597); details: Compound concentration 1000.0 nM
[30] = biological target: Serine/threonine-protein kinase 35 (Homo sapiens) (UniProt Q8TDR2); details: Compound concentration 1000.0 nM
[31] = biological target: Phosphatidylinositol 4-phosphate 5-kinase type-1 gamma (Homo sapiens) (UniProt O60331); details: Compound concentration 1000.0 nM
[32] = biological target: Mitogen-activated protein kinase kinase kinase kinase 1 (Homo sapiens) (UniProt Q92918); details: Compound concentration 1000.0 nM
[33] = biological target: Tyrosine-protein kinase ABL1 (Homo sapiens) (UniProt P00519); details: Compound concentration 1000.0 nM
[34] = biological target: Mitogen-activated protein kinase kinase kinase 5 (Homo sapiens) (UniProt Q99683); details: Compound concentration 1000.0 nM
[35] = biological target: Tyrosine-protein kinase Mer (Homo sapiens) (UniProt Q12866); details: Compound concentration 1000.0 nM
[36] = biological target: Vascular endothelial growth factor receptor 1 (Homo sapiens) (UniProt P17948); details: Compound concentration 1000.0 nM
[37] = biological target: Tyrosine-protein kinase HCK (Homo sapiens) (UniProt P08631); details: Compound concentration 1000.0 nM
[38] = biological target: Mitogen-activated protein kinase kinase kinase 7 (Homo sapiens) (UniProt O43318); details: Compound concentration 1000.0 nM
[39] = biological target: Dual specificity protein kinase CLK3 (Homo sapiens) (UniProt P49761); details: Compound concentration 1000.0 nM

Cyclin-dependent kinase 7 (Homo sapiens), sequence (P50613 whole entry): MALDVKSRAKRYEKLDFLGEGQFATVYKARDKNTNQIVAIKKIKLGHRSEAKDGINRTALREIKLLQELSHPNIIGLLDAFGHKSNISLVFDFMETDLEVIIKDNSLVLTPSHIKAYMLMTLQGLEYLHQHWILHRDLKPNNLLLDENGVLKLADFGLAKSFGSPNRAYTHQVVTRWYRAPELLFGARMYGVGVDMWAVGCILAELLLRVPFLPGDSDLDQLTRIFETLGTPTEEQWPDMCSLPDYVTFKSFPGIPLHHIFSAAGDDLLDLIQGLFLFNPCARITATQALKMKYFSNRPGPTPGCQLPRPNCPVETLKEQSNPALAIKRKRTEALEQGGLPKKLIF
Mitogen-activated protein kinase kinase kinase 7 (Homo sapiens), sequence (O43318 whole entry): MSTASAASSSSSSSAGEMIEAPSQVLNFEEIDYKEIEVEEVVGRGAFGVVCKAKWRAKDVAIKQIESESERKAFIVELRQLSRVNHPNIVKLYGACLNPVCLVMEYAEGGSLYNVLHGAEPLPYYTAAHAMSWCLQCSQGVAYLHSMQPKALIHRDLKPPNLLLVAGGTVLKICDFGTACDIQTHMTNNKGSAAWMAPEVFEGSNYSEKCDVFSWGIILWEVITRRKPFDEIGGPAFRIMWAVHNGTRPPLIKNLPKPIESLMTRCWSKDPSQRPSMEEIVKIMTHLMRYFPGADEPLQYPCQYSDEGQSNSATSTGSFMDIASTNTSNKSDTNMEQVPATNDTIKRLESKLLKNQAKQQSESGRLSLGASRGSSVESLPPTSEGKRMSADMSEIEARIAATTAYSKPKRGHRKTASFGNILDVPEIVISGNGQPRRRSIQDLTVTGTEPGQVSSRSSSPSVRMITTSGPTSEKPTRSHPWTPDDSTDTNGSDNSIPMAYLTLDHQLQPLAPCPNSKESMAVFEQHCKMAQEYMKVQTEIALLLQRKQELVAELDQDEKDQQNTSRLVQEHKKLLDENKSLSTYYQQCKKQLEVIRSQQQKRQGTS
Serine/threonine-protein kinase PRP4 homolog (Homo sapiens), sequence (Q13523 whole entry): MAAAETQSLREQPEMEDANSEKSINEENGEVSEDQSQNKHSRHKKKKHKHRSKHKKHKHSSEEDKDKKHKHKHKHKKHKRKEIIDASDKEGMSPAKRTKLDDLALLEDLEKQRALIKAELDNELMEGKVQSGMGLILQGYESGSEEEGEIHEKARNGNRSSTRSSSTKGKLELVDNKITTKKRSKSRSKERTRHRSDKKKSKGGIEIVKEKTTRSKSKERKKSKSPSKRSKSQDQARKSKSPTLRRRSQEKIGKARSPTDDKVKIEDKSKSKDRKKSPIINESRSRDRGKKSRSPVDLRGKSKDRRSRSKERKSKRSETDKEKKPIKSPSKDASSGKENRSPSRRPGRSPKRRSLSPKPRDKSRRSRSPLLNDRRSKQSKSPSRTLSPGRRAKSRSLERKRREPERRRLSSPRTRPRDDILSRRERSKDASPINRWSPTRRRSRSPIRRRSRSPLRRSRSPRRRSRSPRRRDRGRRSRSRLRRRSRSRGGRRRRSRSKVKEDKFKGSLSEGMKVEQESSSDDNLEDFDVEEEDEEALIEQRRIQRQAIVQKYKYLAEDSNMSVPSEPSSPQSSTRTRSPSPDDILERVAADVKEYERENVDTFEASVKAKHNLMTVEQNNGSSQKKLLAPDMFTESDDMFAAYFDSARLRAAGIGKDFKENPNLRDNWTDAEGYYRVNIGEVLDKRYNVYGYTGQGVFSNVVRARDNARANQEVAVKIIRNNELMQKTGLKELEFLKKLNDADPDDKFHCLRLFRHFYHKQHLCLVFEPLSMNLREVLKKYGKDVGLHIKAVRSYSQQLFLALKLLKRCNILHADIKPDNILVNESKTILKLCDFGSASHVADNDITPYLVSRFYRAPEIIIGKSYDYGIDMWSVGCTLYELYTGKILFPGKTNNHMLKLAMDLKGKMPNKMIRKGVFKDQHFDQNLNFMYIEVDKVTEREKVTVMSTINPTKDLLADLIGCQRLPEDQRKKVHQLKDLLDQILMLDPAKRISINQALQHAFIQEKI
Calcium/calmodulin-dependent protein kinase type IV (Homo sapiens), sequence (Q16566 whole entry): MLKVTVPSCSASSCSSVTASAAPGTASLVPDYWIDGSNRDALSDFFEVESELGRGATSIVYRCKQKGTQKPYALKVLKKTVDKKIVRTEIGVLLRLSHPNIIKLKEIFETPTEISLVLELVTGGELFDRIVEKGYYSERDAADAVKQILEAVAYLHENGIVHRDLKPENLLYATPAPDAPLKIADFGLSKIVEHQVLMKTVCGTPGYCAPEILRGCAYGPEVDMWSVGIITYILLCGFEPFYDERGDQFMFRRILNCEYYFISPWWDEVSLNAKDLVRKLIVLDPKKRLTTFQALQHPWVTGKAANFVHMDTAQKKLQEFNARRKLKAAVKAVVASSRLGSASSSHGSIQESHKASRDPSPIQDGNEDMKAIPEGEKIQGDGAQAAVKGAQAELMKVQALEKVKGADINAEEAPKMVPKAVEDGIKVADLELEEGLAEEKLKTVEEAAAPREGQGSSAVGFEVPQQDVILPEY
Activin receptor type-2B (Homo sapiens), sequence (Q13705 whole entry): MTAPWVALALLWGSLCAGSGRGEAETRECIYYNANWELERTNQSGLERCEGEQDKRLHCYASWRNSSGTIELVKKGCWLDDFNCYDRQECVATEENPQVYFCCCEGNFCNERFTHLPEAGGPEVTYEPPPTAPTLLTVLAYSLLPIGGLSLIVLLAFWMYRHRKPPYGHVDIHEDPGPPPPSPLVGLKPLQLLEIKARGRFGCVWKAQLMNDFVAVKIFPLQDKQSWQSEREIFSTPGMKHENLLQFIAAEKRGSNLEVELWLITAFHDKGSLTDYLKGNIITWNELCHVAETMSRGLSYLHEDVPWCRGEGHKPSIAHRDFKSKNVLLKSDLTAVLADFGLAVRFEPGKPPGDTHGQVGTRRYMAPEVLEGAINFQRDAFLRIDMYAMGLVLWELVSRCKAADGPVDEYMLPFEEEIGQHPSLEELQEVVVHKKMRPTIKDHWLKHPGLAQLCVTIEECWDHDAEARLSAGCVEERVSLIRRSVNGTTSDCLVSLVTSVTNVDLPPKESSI
Serine/threonine-protein kinase B-raf (Homo sapiens), sequence (P15056 whole entry): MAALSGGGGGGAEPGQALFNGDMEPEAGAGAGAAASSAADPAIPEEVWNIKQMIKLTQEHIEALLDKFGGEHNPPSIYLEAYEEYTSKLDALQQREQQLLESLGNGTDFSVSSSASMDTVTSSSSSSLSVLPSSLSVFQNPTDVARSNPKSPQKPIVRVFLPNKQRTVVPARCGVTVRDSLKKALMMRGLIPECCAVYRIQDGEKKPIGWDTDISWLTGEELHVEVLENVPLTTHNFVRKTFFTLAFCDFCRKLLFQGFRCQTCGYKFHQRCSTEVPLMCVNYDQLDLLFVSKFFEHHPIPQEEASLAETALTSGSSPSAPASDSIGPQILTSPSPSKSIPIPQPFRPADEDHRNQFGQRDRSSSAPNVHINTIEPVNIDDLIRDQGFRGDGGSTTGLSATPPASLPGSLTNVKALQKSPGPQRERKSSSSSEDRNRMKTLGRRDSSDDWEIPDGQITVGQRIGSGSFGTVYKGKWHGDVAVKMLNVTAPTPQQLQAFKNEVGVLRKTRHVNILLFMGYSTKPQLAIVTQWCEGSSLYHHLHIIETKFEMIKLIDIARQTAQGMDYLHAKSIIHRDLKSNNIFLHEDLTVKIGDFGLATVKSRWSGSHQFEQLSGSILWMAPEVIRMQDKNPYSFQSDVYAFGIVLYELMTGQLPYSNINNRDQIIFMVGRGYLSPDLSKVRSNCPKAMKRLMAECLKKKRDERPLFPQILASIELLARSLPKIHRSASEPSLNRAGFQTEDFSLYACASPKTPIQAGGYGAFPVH
Receptor-interacting serine/threonine-protein kinase 1 (Homo sapiens), sequence (Q13546 whole entry): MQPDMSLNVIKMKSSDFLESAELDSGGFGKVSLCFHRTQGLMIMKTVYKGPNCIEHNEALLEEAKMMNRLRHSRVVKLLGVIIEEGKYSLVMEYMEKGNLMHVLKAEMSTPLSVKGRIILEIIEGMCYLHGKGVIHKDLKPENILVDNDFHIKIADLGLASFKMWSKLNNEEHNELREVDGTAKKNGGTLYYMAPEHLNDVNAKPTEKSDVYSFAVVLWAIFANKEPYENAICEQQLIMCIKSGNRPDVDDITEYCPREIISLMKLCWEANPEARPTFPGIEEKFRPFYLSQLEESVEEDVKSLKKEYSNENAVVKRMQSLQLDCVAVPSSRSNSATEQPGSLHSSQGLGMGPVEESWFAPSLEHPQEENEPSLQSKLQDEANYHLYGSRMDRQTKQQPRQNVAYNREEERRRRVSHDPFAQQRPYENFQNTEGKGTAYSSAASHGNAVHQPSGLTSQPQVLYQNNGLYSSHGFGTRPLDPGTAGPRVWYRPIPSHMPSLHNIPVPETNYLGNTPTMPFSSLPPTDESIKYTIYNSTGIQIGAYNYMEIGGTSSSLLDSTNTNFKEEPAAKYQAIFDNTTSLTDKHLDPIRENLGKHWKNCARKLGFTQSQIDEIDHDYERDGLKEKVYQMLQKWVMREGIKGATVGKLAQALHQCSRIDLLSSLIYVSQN
Serine/threonine-protein kinase B-raf (Homo sapiens), P15056 [V600E], sequence (P15056 whole entry V600E): as the sequence (P15056 whole entry) above, with V600E counted along it
Tyrosine-protein kinase CSK (Homo sapiens), sequence (P41240 2-450 limits assumed): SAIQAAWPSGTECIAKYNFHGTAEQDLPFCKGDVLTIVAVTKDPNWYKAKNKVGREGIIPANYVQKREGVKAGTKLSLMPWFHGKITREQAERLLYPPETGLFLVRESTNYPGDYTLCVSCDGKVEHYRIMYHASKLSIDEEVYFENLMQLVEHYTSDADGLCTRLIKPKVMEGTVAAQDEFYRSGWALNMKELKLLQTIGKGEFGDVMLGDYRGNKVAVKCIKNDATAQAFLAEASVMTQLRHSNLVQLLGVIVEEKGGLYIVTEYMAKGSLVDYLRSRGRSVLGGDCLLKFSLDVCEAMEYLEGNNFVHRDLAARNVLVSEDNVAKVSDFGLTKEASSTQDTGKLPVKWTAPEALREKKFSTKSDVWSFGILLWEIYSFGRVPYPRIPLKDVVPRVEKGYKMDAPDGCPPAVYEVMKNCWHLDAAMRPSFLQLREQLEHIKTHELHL

Row | SMILES | residual activity [1] | residual activity [2] | inhibition [3] | residual activity [4] | residual activity [5] | residual activity [6] | residual activity [7] | residual activity [8] | residual activity [9] | residual activity [10] | residual activity [11] | residual activity [12] | residual activity [13] | residual activity [14] | residual activity [15] | residual activity [16] | residual activity [17] | residual activity [18] | residual activity [19] | residual activity [20] | other results
1 | O=C(NCc1ncc(C(F)(F)F)cc1Cl)c1ccc2c(c1)C1(CCS(=O)(=O)CC1)[C@H](C1CC1)N2S(=O)(=O)c1ccc(F)cc1 [BAY-784] | 78% | 88% | -5.4% | 87% | 84% | 100% | 100% | 90% | 95% | 100% | 100% | 100% | 100% | 100% | 100% | 64% | 91% | 76% | 86% | 100% | inhibition [21]: 13.5%; residual activity [22]: 96%; residual activity [23]: 100%; residual activity [24]: 100%; residual activity [25]: 97%; residual activity [26]: 100%; residual activity [27]: 100%; residual activity [28]: 100%; residual activity [29]: 79%; residual activity [30]: 100%; residual activity [31]: 100%; residual activity [32]: 100%; residual activity [33]: 71%; residual activity [34]: 100%; residual activity [35]: 100%; residual activity [36]: 98%; residual activity [37]: 69%; residual activity [38]: 80%; residual activity [39]: 86%
2 | O=C(NCc1ncc(C(F)(F)F)cc1Cl)c1ccc2c(c1)C1(CCS(=O)(=O)CC1)[C@@H](C1CC1)N2S(=O)(=O)c1ccc(F)cc1 [BAY-786] | 84% | 99% | -4.88% | 77% | 90% | 72% | 79% | 100% | 94% | 95% | 30% | 74% | 99% | 97% | 96% | 56% | 96% | 74% | 71% | 100% | inhibition [21]: -1.68%; residual activity [22]: 78%; residual activity [23]: 84%; residual activity [24]: 91%; residual activity [25]: 96%; residual activity [26]: 94%; residual activity [27]: 97%; residual activity [28]: 100%; residual activity [29]: 73%; residual activity [30]: 93%; residual activity [31]: 94%; residual activity [32]: 89%; residual activity [33]: 86%; residual activity [34]: 100%; residual activity [35]: 100%; residual activity [36]: 82%; residual activity [37]: 86%; residual activity [38]: 63%; residual activity [39]: 100%
